Data: patent US9260439B2, “Dihydropyrrolopyrimidine derivatives” (PFIZER INC., priority 2014, dated 2016)
Counter-ions that a name gives are not always drawn.

Biological target: truncated PI3Kα (p110α/iSH2 p85α) (Homo sapiens (Human), UniProt P42336)
Assay: PI3KA_Act fluorescence polarization kinase assay (Ki)
Format: biochemical
Settings: 1 mM ATP
Text: 2) p110α-iSH2 p85α Complex (Full Length p110α and p85α iSH2)(“PI3KA_Act”)
Genes encoding for full length p110α and p85α nSH-iSH2=niSH2 (p85a aminoacids 322-600) subunits of PI3Kα complex were subcloned from existing constructs into pFASTBAC Dual vector (Life Technologies, Carlsbad, Calif.) using standard cloning procedures. Gene encoding p110α subunit was subcloned into polyhedrine promoter while gene encoding p85α niSH2 domains was subcloned into p10 promoter. Additionally, Human Rhinovirus 3C Protease (“HRV 3C”) site was introduced between nSH2 and iSH2, replacing aminoacids 431-438 of p85α with […] HRV 3C recognition sequence, using standard QuickChange mutagenesis protocol (Agilent Technologies, CA). Recombinant baculovirus was generated using Bac-to-Bac protocol (Life Technologies, Carlsbad, Calif.). Large scale expression was conducted in Sf21 (Life Technologies, Carlsbad, Calif.) cells at a multiplicity of infection (“MOI”)=1 for 48 hours. Cells were lyzed in 50 mM Tris pH 8.0, 250 mM NaCl, 5% glycerol, 0.25 mM TCEP, and 20 mM imidazole. The p110α-niSH2 p85α complex was purified from clarified supernatant using Immobilized Metalo Affinity Chromatography (“IMAC”). The protein was eluted from the column using 50 mM Tris pH 8.0, 200 mM NaCl, 0.25 mM TCEP, and 200 mM imidazole. Following elution p110α-niSH2 p85α complex was dialyzed against 4 liters of 50 mM Tris pH 8.0, 200 mM NaCl, 0.25 mM TCEP, and 40 mM imidazole in the presence of PreScission Protease (1:70 molar ratio of Protease to Protein) and TEV protease (1:40 molar ratio protease to protein) for 16 hours at 4° C. The protein was further purified using reverse IMAC to remove cleaved histidine tag and contaminants captured during initial IMAC purification. The mixture of p110α-iSH2 p85α complex and cleaved nSH2 was recovered in reverse IMAC 40 mM imidazole flow through and 60 mM imidazole wash fractions. Those fractions were pulled together and loaded on Superdex 200 26/60 SEC column equilibrated in 25 mM Tris, pH 8.0, 100 mM NaCl, 2% glycerol, and 2 mM TCEP. Following SEC, chromatography peak fractions containing p110α-iSH2 p85α complex were pulled and concentrated to 4.3 mg/mL. Purity and integrity of the complex was confirmed using LCMS, analytical SEC and SDS-PAGE (sodium dodecyl sulfate polyacrylamide gel electrophoresis) analysis.
The biochemical assays of kinase activity of full-length PI3Kα (full-length p110α/p85a) or truncated PI3Kα (p110α/iSH2 p85a) were conducted using a fluorescence polarization format similar to the procedure of Yuan J., et al., (2011) “PF-04691502, a Potent and Selective Oral Inhibitor of PI3K and mTOR Kinases with Antitumor Activity”, Mol Cancer Ther. 10, 2189-2199. The enzymatic reactions were conducted in 50 μL volumes in 96-well plates. The reactions contained human recombinant PI3Kα (2 nM full-length p110α/p85α or 0.5 nM p110α/iSH2 p85) and 30 μM phosphatidylinositol 4,5-bisphosphate (“PIP2”) (Cayman Chemical Company, Ann Arbor, Mich.) and were sonicated for 1 minute prior to adding PI3Kα enzyme (PI3KA_Act or PI3KA_FL), DMSO or test compound (12-point 3-fold serial dilution, 3 μM top dose, 2° A) DMSO final concentration), 5 mM MgCl2, 50 mM HEPES pH 7.4, 150 mM NaCl, 1 mM DTT ((2S,3S)-1,4-bis(sulfanyl)butane-2,3-diol), and 0.05% 3-[(3-cholamidopropyl)dimethylammonio]-1-propanesulfonate (“CHAPS”). […] The reactions were incubated for 30 min at room temperature, stopped with EDTA pH 8 (10 mM final concentration). In a detection plate, 15 μL of detector/probe mixture, containing 480 nM GST-Grp1 PH domain protein (University of Dundee, Dundee, UK) and 12 nM carboxytetramethylrhodamine (“TAMRA”)-tagged fluorescent phosphatidylinositol (3,4,5)-triphosphate (“PIP3”) (Echelon Biosciences, Inc., Salt Lake City, Utah) in assay buffer, was mixed with 15 μL of kinase reaction mixture. The plate was shaken for 30 minutes and fluorescence polarization values were measured on an LJL Analyst HT plate reader (Molecular Devices, Sunnyvale, Calif.). […]

Chain of truncated PI3Kα (p110α/iSH2 p85α) (P42336 whole entry, the tested form may be a part): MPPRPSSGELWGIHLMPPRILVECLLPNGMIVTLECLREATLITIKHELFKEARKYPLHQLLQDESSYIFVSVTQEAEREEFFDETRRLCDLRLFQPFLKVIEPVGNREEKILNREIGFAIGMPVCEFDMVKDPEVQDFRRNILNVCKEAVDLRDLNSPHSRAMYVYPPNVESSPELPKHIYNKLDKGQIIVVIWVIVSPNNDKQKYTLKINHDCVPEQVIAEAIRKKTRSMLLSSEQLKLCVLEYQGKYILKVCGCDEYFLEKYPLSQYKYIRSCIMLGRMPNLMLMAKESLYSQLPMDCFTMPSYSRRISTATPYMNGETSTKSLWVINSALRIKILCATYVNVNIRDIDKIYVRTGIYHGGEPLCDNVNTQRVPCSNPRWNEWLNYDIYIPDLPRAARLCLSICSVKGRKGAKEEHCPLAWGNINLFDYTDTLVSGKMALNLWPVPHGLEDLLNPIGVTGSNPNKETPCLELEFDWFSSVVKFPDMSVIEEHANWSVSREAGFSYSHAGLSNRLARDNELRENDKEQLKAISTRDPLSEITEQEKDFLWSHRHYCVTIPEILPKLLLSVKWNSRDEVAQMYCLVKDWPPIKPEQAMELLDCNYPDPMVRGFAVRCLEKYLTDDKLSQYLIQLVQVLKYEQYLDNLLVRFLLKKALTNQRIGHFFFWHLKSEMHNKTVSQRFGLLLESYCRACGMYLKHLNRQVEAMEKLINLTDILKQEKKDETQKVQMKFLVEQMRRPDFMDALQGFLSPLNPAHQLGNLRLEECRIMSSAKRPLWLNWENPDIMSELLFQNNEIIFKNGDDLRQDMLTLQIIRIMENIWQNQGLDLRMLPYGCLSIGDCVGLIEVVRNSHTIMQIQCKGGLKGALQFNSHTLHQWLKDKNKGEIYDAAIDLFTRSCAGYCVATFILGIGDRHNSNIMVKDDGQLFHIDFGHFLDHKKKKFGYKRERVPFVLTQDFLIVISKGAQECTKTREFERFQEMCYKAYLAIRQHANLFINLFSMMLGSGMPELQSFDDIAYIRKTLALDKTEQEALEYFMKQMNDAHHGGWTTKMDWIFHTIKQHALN

Compound | PI3KA_Act Ki | other results
CNS(=O)(=O)N1CCC(C)(N2CCc3c(-c4cnc(N)nc4)nc(N4CCOCC4)nc32)C1 (racemic) [Example 162] | <0.018 nM | –
CC(C)(C)OC(=O)N1CCCC(C)(N2CCc3c(-c4cnc(N)nc4)nc(N4CCOCC4)nc32)C1 (racemic) [Example 434, tert-butyl 3-[4-(2-aminopyrimidin-5-yl)-2-(morpholin-4-yl)-5,6-dihydro-7H-pyrrolo[2,3-d]pyrimidin-7-yl]-3-methylpiperidine-1-carboxylate] | 0.220 nM | –
CS(=O)(=O)N1CC2CC2(N2CCc3c(-c4cnc(N)nc4)nc(N4CCOCC4)nc32)C1 (racemic) [Example 435, 5-{7-[3-(methylsulfonyl)-3-azabicyclo[3.1.0]hex-1-yl]-2-(morpholin-4-yl)-6,7-dihydro-5H-pyrrolo[2,3-d]pyrimidin-4-yl}pyrimidin-2-amine] | 0.132 nM | –
C[C@]1(N2CCc3c(-c4cnc(N)nc4)nc(N4CCOCC4)nc32)CCN(C2CCNC2=O)C1 (single isomer, unassigned) [Example 7] | 0.091 nM | –
CCC(C)(O)C(=O)N1CC[C@](C)(N2CCc3c(-c4cnc(N)nc4)nc(N4CCOCC4)nc32)C1 (single isomer, unassigned) [Example 273] | 0.087 nM | –
CCC(C)(O)C(=O)N1CC[C@](C)(N2CCc3c(-c4cnc(N)nc4)nc(N4CCOCC4)nc32)C1 (single isomer, unassigned) [Example 274] | 0.145 nM | –
CC(C(N)=O)C(=O)N1CC[C@](C)(N2CCc3c(-c4cnc(N)nc4)nc(N4CCOCC4)nc32)C1 (single isomer, unassigned) [Example 316] | 0.019 nM | –
C[C@@]1(N2CCc3c(-c4cnc(N)nc4)nc(N4CCOCC4)nc32)CCN(C(=O)C(O)C2CC2)C1 (single isomer, unassigned) [Example 326] | 0.048 nM | –
C[C@@]1(N2CCc3c(-c4cnc(N)nc4)nc(N4CCOCC4)nc32)CCN(C(=O)C(O)C2CC2)C1 (single isomer, unassigned) [Example 327] | 0.028 nM | –
CC1(C(=O)N2CC[C@](C)(N3CCc4c(-c5cnc(N)nc5)nc(N5CCOCC5)nc43)C2)CCCO1 (single isomer, unassigned) [Example 375, hydrochloride] | – | PI3KA_Act Ki (hydrochloride): 0.043 nM
CC1(C(=O)N2CC[C@](C)(N3CCc4c(-c5cnc(N)nc5)nc(N5CCOCC5)nc43)C2)CCCO1 (single isomer, unassigned) [Example 376] | 0.090 nM | –
CN1CCC(N2CC[C@](C)(N3CCc4c(-c5cnc(N)nc5)nc(N5CCOCC5)nc43)C2)C1=O (single isomer, unassigned) [Example 426] | 0.051 nM | –
CN1CCC(N2CC[C@](C)(N3CCc4c(-c5cnc(N)nc5)nc(N5CCOCC5)nc43)C2)C1=O (single isomer, unassigned) [Example 427] | 0.073 nM | –
C[C@]1(N2CCc3c(-c4cnc(N)nc4)nc(N4CCOCC4)nc32)CCN(C2CCCNC2=O)C1 (single isomer, unassigned) [Example 428] | 0.067 nM | –
C[C@]1(N2CCc3c(-c4cnc(N)nc4)nc(N4CCOCC4)nc32)CCN(C2CCCNC2=O)C1 (single isomer, unassigned) [Example 429] | 0.160 nM | –
CC1(N2CCc3c(-c4cnc(N)nc4)nc(N4CCOCC4)nc32)CCCNC1 (single isomer, unassigned) [Example 431, 5-[7-(3-methylpiperidin-3-yl)-2-(morpholin-4-yl)-6,7-dihydro-5H-pyrrolo[2,3-d]pyrimidin-4-yl]pyrimidin-2-amine hydrochloride] | – | PI3KA_Act Ki (hydrochloride): 14.544 nM
CC1(N2CCc3c(-c4cnc(N)nc4)nc(N4CCOCC4)nc32)CCCNC1 (single isomer, unassigned) [Example 432, 5-[7-(3-methylpiperidin-3-yl)-2-(morpholin-4-yl)-6,7-dihydro-5H-pyrrolo[2,3-d]pyrimidin-4-yl]pyrimidin-2-amine hydrochloride] | – | PI3KA_Act Ki (hydrochloride): 11.739 nM
CS(=O)(=O)N1C[C@H]2C[C@@H]1[C@@H]2N1CCc2c(-c3cnc(N)nc3)nc(N3CCOCC3)nc21 (single isomer, unassigned) [Example 439] | – | Ki: 1.51 nM
CS(=O)(=O)N1C[C@H]2C[C@@H]1[C@@H]2N1CCc2c(-c3cnc(N)nc3)nc(N3CCOCC3)nc21 (single isomer, unassigned) [Example 440] | – | Ki: 0.178 nM
C[C@H]1COCCN1c1nc(-c2cnc(N)nc2)c2c(n1)N([C@@]1(C)CCN(C(=O)C3(N)CCOC3)C1)CC2 (single isomer, unassigned) [Example 502, hydrochloride] | – | PI3KA_Act Ki (hydrochloride): 0.064 nM
C[C@H]1COCCN1c1nc(-c2cnc(N)nc2)c2c(n1)N([C@@]1(C)CCN(C(=O)C3(N)CCOC3)C1)CC2 (single isomer, unassigned) [Example 503, hydrochloride] | – | PI3KA_Act Ki (hydrochloride): 0.091 nM
C[C@H]1COCCN1c1nc(-c2cnc(N)nc2)c2c(n1)N([C@@]1(C)CCN(C3CCNC3=O)C1)CC2 (single isomer, unassigned) [Example 514] | 0.068 nM | –
C[C@H]1COCCN1c1nc(-c2cnc(N)nc2)c2c(n1)N([C@@]1(C)CCN(C3CCNC3=O)C1)CC2 (single isomer, unassigned) [Example 515] | <0.081 nM | –
C[C@H]1COCCN1c1nc(-c2cnc(N)nc2)c2c(n1)N(C1(C)CCCNC1)CC2 (single isomer, unassigned) [Example 517, hydrochloride] | – | PI3KA_Act Ki (hydrochloride): 9.319 nM
C[C@H]1COCCN1c1nc(-c2cnc(N)nc2)c2c(n1)N(C1(C)CCCNC1)CC2 (single isomer, unassigned) [Example 518, hydrochloride] | – | PI3KA_Act Ki (hydrochloride): 11.285 nM
CNC(=O)N1CC[C@@](C)(N2CCc3c(-c4cnc(N)nc4)nc(N4CCOCC4)nc32)C1 [Example 2, (3R)-3-[4-(2-aminopyrimidin-5-yl)-2-(morpholin-4-yl)-5,6-dihydro-7H-pyrrolo[2,3-d]pyrimidin-7-yl]-N,3-dimethylpyrrolidine-1-carboxamide] | 0.160 nM | –
Nc1ncc(-c2nc(N3CCOC[C@H]3CO)nc3c2CCN3C2CC(F)(F)C2)cn1 [Example 3, {(3R)-4-[4-(2-aminopyrimidin-5-yl)-7-(3,3-difluorocyclobutyl)-6,7-dihydro-5H-pyrrolo[2,3-d]pyrimidin-2-yl]morpholin-3-yl}methanol] | 118.146 nM | –
CC(C)(N)C(=O)N1CC[C@](C)(N2CCc3c(-c4cnc(N)nc4)nc(N4CCOCC4)nc32)C1 [Example 4, 2-amino-1-{(3S)-3-[4-(2-aminopyrimidin-5-yl)-2-(morpholin-4-yl)-5,6-dihydro-7H-pyrrolo[2,3-d]pyrimidin-7-yl]-3-methylpyrrolidin-1-yl}-2-methylpropan-1-one] | 0.023 nM | –
C[C@H]1COCCN1c1nc(-c2cnc(N)nc2)c2c(n1)N([C@@]1(C)CCN(C(=O)C(C)(C)N)C1)CC2 [Example 5, 2-amino-1-[(3S)-3-{4-(2-aminopyrimidin-5-yl)-2-[(3S)-3-methylmorpholin-4-yl]-5,6-dihydro-7H-pyrrolo[2,3-d]pyrimidin-7-yl}-3-methylpyrrolidin-1-yl]-2-methylpropan-1-one] | 0.024 nM | –
